Results: patent US9248163B2, “Insulin-like growth factor binding protein 7 for treatment of cancer” (University of Massachusetts, priority 2007, dated 2016)

Tested on: SK-MEL-28 cells
Test: ChIP assays 24 hours following rIGFBP7 treatment
Assay type: cell-based, human
Protocol: Chromatin immunoprecipitation (ChIP) assays were performed using extracts prepared 24 hours following rIGFBP7 treatment. The following antibodies were used: α-BRG1 (de La Serna et al., 2000, Mol. Cell. Biol., 20:2839-51), α-phospho-STAT1 (Upstate), and α-SMARCB1 and α-STAT1 (Santa Cruz). For ChIP experiments on the SMARCB1 promoter, primers spanning a STAT1 binding site located ˜2.4 kb upstream of the transcription start-site were used. For ChIP experiments on the BNIP3L promoter, a series of primer-pairs that covered ˜2 kb of the BNIP3L promoter were used; following addition of rIGFBP7, SMARCB1 and BRG1 were recruited to the BNIP3L promoter near the transcription start-site. ChIP products were analyzed by quantitative real-time PCR using Platinum SYBR™ Green qPCR SuperMix-UDG with Rox (Invitrogen). Calculation of fold differences was done as previously described (Pfaffl, 2001, Nucleic Acids Res., 29:e45).

## rIGFBP7: purified recombinant human IGFBP7, C-terminal Flag-tagged, from baculovirus-infected Sf9 insect cells
SK-MEL-28 cells
  STAT1 recruitment to the SMARCB1 promoter: recruited
Near the transcription start-site
  SMARCB1 and BRG1 recruitment to the BNIP3L promoter: recruited
